Assay results as given in PubChem BioAssay (NCI).
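48-hour exposure; five concentrations; linearly interpolated endpoints. TGI marks complete inhibition of growth.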

How the values were obtained:
Experiment in all cases: inhibition of tumour cell growth, NCI panel, 48 h
A498 renal = test system: A498 renal
CCRF-CEM leukemia = test system: CCRF-CEM leukemia
EKVX NSCLC = test system: EKVX NSCLC
HCT-15 colon = test system: HCT-15 colon
IGROV1 ovarian = test system: IGROV1 ovarian
K-562 leukemia = test system: K-562 leukemia
M19-MEL melanoma = test system: M19-MEL melanoma
MOLT-4 leukemia = test system: MOLT-4 leukemia
NCI-H522 lung = test system: NCI-H522 lung
RXF 393 renal = test system: RXF 393 renal
SK-OV-3 ovarian = test system: SK-OV-3 ovarian
SNB-19 CNS = test system: SNB-19 CNS
SNB-75 CNS = test system: SNB-75 CNS
TK-10 renal = test system: TK-10 renal
UACC-62 melanoma = test system: UACC-62 melanoma
HS 578T breast = test system: HS 578T breast
MCF7 breast = test system: MCF7 breast
MDA-MB-231 breast = test system: MDA-MB-231 breast
NCI/ADR-RES ovarian = test system: NCI/ADR-RES ovarian
PC-3 prostate = test system: PC-3 prostate

Row | Structure (SMILES) | TGI (A498 renal) | TGI (CCRF-CEM leukemia) | TGI (EKVX NSCLC) | TGI (HCT-15 colon) | TGI (IGROV1 ovarian) | TGI (K-562 leukemia) | TGI (M19-MEL melanoma) | TGI (MOLT-4 leukemia) | TGI (NCI-H522 lung) | TGI (RXF 393 renal) | TGI (SK-OV-3 ovarian) | TGI (SNB-19 CNS) | TGI (SNB-75 CNS) | TGI (TK-10 renal) | TGI (UACC-62 melanoma) | TGI (HS 578T breast) | TGI (MCF7 breast) | TGI (MDA-MB-231 breast) | TGI (NCI/ADR-RES ovarian) | TGI (PC-3 prostate)
1 | O=C1CCCCC1C1(O)C(=O)Nc2cc(F)ccc21 (stereo not given) | > 100 µM | > 100 µM | > 100 µM | > 100 µM | > 100 µM | > 100 µM | > 100 µM | > 100 µM | > 100 µM | > 100 µM | > 100 µM | > 100 µM | > 100 µM | > 100 µM | > 100 µM | – | – | – | – | –
2 | CSc1nc(C)cc(N(C)c2ccccc2)n1 | > 100 µM | > 100 µM | > 100 µM | > 100 µM | > 100 µM | > 100 µM | – | > 100 µM | > 100 µM | > 100 µM | > 100 µM | > 100 µM | 94.3 µM | 98.9 µM | > 100 µM | 86.6 µM | 75.4 µM | 87.3 µM | 63.6 µM | > 100 µM
3 | Cc1cc2c(cc1C)C(=O)c1ncccc1C2=O | > 100 µM | > 100 µM | > 100 µM | > 100 µM | > 100 µM | > 100 µM | – | 74.2 µM | 43.9 µM | > 100 µM | > 100 µM | > 100 µM | > 100 µM | > 100 µM | > 100 µM | > 100 µM | > 100 µM | 67.1 µM | 70.8 µM | > 100 µM
4 | Cc1ccc(/C=C/C(=O)c2sc(C(N)=S)nc2C)cc1 | > 100 µM | > 100 µM | > 100 µM | > 100 µM | > 100 µM | > 100 µM | > 100 µM | > 100 µM | > 100 µM | > 100 µM | > 100 µM | – | > 100 µM | > 100 µM | > 100 µM | – | – | – | – | –
5 | CSc1nc2nc(C)c(C)nc2c(=O)[nH]1 | > 100 µM | > 100 µM | > 100 µM | > 100 µM | > 100 µM | > 100 µM | > 100 µM | > 100 µM | > 100 µM | > 100 µM | > 100 µM | > 100 µM | > 100 µM | > 100 µM | > 100 µM | – | – | – | – | –
6 | NC(=O)ON=C1CCN(Cc2ccccc2)CC1 | > 100 µM | > 100 µM | > 100 µM | > 100 µM | > 100 µM | > 100 µM | – | > 100 µM | > 100 µM | > 100 µM | > 100 µM | > 100 µM | > 100 µM | > 100 µM | > 100 µM | > 100 µM | > 100 µM | > 100 µM | > 100 µM | > 100 µM
7 | O=C(O)c1cnccc1-c1cc(=O)[nH]n1-c1ccccc1 | > 100 µM | > 100 µM | > 100 µM | > 100 µM | > 100 µM | > 100 µM | – | > 77.6 µM | > 100 µM | > 100 µM | > 100 µM | > 100 µM | > 100 µM | > 100 µM | > 100 µM | > 100 µM | > 100 µM | > 100 µM | > 100 µM | > 100 µM
8 | COc1ccc(NC(=O)CSc2nnc(Cc3ccccc3)o2)cc1 | > 100 µM | > 100 µM | – | > 100 µM | > 100 µM | > 100 µM | > 100 µM | > 100 µM | > 100 µM | > 100 µM | > 100 µM | > 100 µM | > 100 µM | > 100 µM | > 100 µM | – | – | – | – | –
9 | C/C(=N/NC(=S)N1CCCCCC1)c1ccccc1O | > 74 µM | > 30.8 µM | > 100 µM | > 100 µM | > 39.7 µM | > 100 µM | – | 24.4 µM | > 53.2 µM | > 93 µM | > 100 µM | > 100 µM | 69.1 µM | > 100 µM | 17.7 µM | > 100 µM | > 100 µM | > 66.8 µM | 8.35 µM | > 100 µM
10 | COc1ccc(Cc2cc(OC)c(OC)c(OC)c2)cc1O | 76.8 µM | > 100 µM | > 100 µM | > 100 µM | > 100 µM | > 100 µM | > 100 µM | > 100 µM | 5.49 µM | > 100 µM | > 80.2 µM | > 100 µM | > 100 µM | > 100 µM | > 73.2 µM | > 100 µM | > 100 µM | > 100 µM | > 100 µM | > 100 µM
11 | C/C(Sc1ccccc1)=C1/CCCN(Cc2ccccc2)C1 | > 100 µM | 46.4 µM | > 100 µM | 42.5 µM | > 100 µM | 38.6 µM | – | 39.4 µM | 38.8 µM | 36.3 µM | > 100 µM | > 100 µM | 86.3 µM | 60.4 µM | 47.6 µM | 41.4 µM | 57.5 µM | 76.5 µM | 74.1 µM | 59.9 µM
12 | C/C=C1/CN2CCC34C5=CC(=O)C(c6cc7c(cc6OC)N(C)C6=C(C(=O)OC)CC8(CC)CCCN9CCC67C98)=CC5=NC23CCC1C4C(=O)OC (stereo not given) | 30.2 µM | 5.99 µM | 28.1 µM | 28.3 µM | 31.9 µM | 15.9 µM | – | 6.94 µM | 23.7 µM | 23.3 µM | 30.9 µM | 30.3 µM | 21.6 µM | 30.9 µM | 31.1 µM | 25.6 µM | 22.8 µM | 23.5 µM | 54.3 µM | 26 µM
13 | CCOC(=O)N/N=C/C1=NN(C(=O)OCC)S(=O)C1C (stereo not given) | > 100 µM | > 100 µM | > 100 µM | > 100 µM | > 100 µM | > 100 µM | – | > 100 µM | > 100 µM | > 100 µM | > 100 µM | > 100 µM | > 100 µM | > 100 µM | > 100 µM | > 100 µM | > 100 µM | > 100 µM | > 100 µM | > 100 µM
